Experimental data published in patent US20180000089A1, “NOVEL MICROBIOCIDES” (Syngenta Participations AG, priority 2015, published 2018).

Legend:
Pythium ultimum = Pythium ultimum / liquid culture (seedling damping off); type: cell-based; settings: Globisporangium ultimum, potato dextrose broth, 24° C., inhibition of growth determined photometrically 2-3 days after application, read-out: disease control
Method: 8 Pythium ultimum/Liquid Culture (Seedling Damping Off) Mycelia fragments and oospores of a newly grown liquid culture of the fungus were directly mixed into nutrient broth (potato dextrose broth). After placing a DMSO solution of test compound into a 96-well format microtiter plate at an application rate of 200 ppm, the nutrient broth containing the fungal mycelia/spore mixture was added. The test plates were incubated at 24° C. and the inhibition of growth was determined photometrically 2-3 days after application.

[1] = system: Glomerella lagenarium (Colletotrichum Lagenarium); test: Glomerella lagenarium (Colletotrichum lagenarium) / liquid culture (anthracnose); type: cell-based; settings: Colletotrichum orbiculare, PDB, 24° C., inhibition of growth measured photometrically 3-4 days after application, read-out: disease control
Method: (§1) 10 Glomerella lagenarium (Colletotrichum Lagenarium)/Liquid Culture (Anthracnose): Conidia of the fungus from cryogenic storage were directly mixed into nutrient broth (PDB potato dextrose broth). After placing a DMSO solution of test compound into a 96-well microtiter plate at an application rate of 200 ppm, the nutrient broth containing the fungal spores was added. The test plates were incubated at 24° C. and the inhibition of growth was measured photometrically 3-4 days after application.

Gaeumannomyces Graminis = test: Gaeumannomyces graminis / liquid culture (take-all of cereals); type: cell-based; settings: PDB, 24° C., inhibition of growth determined photometrically 4-5 days after application, read-out: disease control
Method: 13 Gaeumannomyces Graminis/Liquid Culture (Take-all of Cereals): Mycelial fragments of the fungus from cryogenic storage were directly mixed into nutrient broth (PDB potato dextrose broth). […] The test plates were incubated at 24° C. and the inhibition of growth was determined photometrically 4-5 days after application.

[2] = system: Mycosphaerella graminicola (Septoria tritici); test: Mycosphaerella graminicola (Septoria tritici) / liquid culture (Septoria blotch); type: cell-based; settings: Zymoseptoria tritici, PDB, 24° C., inhibition of growth determined photometrically 4-5 days after application, read-out: disease control
Method: as §1, with “12 Mycosphaerella graminicola (Septoria tritici)/Liquid” for “10 Glomerella lagenarium (Colletotrichum Lagenarium)/Liquid”, “(Septoria Blotch):” for “(Anthracnose):”, “determined” for “measured”, “4-5” for “3-4”

[3] = system: Monographella nivalis (Microdochium nivale); test: Monographella nivalis (Microdochium nivale) / liquid culture (foot rot cereals); type: cell-based; settings: PDB, 24° C., inhibition of growth determined photometrically 4-5 days after application, read-out: disease control
Method: as §1, with “14 Monographella nivalis (Microdochium nivale)/liquid culture (foot rot cereals):” for “10 Glomerella lagenarium (Colletotrichum Lagenarium)/Liquid Culture (Anthracnose):”, “determined” for “measured”, “4-5” for “3-4”

Fusarium culmorum = test: microbe, parasite or virus in culture; type: cell-based; settings: read-out: disease control
Sclerotinia sclerotiorum = Sclerotinia sclerotiorum / liquid culture (cottony rot); type: cell-based; settings: PDB, 24° C., inhibition of growth determined visually 3-4 days after application, read-out: disease control
Method: 17 Sclerotinia sclerotiorum/liquid culture (cottony rot): Mycelia fragments of a newly grown liquid culture of the fungus were directly mixed into nutrient broth (PDB potato dextrose broth). After placing a (DMSO) solution of the test compounds into a microtiter plate (96-well format) the nutrient broth containing the fungal material was added. The test plates were incubated at 24° C. and the inhibition of growth was determined visually 3-4 days after application.

[4] = system: Mycosphaerella arachidis (Cercospora arachidicola); test: Mycosphaerella arachidis (Cercospora arachidicola) / liquid culture (early leaf spot); type: cell-based; settings: PDB, 24° C., inhibition of growth determined photometrically 4-5 days after application, read-out: disease control
Method: as §1, with “11 Mycosphaerella arachidis (Cercospora arachidicola)/Liquid” for “10 Glomerella lagenarium (Colletotrichum Lagenarium)/Liquid”, “(Early Leaf Spot):” for “(Anthracnose):”, “determined” for “measured”, “4-5” for “3-4”

[5] = system: Botryotinia fuckeliana (Botrytis cinerea); test: Botryotinia fuckeliana (Botrytis cinerea) / liquid culture (gray mould); type: cell-based; settings: Vogels broth, 24° C., inhibition of growth determined photometrically 3-4 days after application, read-out: disease control
Method: as §1, with “9 Botryotinia fuckeliana (Botrytis cinerea)/liquid culture (Gray mould):” for “10 Glomerella lagenarium (Colletotrichum Lagenarium)/Liquid Culture (Anthracnose):”, “(Vogels” for “(PDB potato dextrose”, “determined” for “measured”

Plasmopara viticola = test: whole plant or invertebrate; type: in vivo; settings: foliar, read-out: disease control
[6] = system: Thanatephorus cucumeris (Rhizoctonia solani); test: Thanatephorus cucumeris (Rhizoctonia solani) / liquid culture (foot rot, damping-off); type: cell-based; settings: PDB, 24° C., inhibition of growth determined photometrically 3-4 days after application, read-out: disease control
Method: 16 Thanatephorus cucumeris (Rhizoctonia solani)/liquid culture (foot rot, damping-off): Mycelia fragments of a newly grown liquid culture of the fungus were directly mixed into nutrient broth (PDB potato dextrose broth). After placing a DMSO solution of the test compounds into a 96-well microtiter plate at an application rate of 200 ppm, the nutrient broth containing the fungal material was added. The test plates were incubated at 24° C. and the inhibition of growth was determined photometrically 3-4 days after application.

SMILES: OB1OCc2cc(Cl)c(-c3cc(Br)ccc3-n3cccn3)cc21 [Compound 17]
- inhibition of growth at 200 ppm (Pythium ultimum): ≥ 80%
- inhibition of growth at 200 ppm [1]: ≥ 80%
- inhibition of growth at 200 ppm (Gaeumannomyces Graminis): ≥ 80%
- inhibition of growth at 200 ppm [2]: ≥ 80%
- inhibition of growth at 200 ppm [3]: ≥ 80%

SMILES: CC(=O)Nc1ccc(F)c(-c2cc3c(cc2Cl)COB3O)c1 [Compound 20, N-[3-(5-chloro-1-hydroxy-3H-2,1-benzoxaborol-6-yl)-4-fluoro-phenyl]acetamide]
- inhibition of growth at 200 ppm (Pythium ultimum): ≥ 80%
- inhibition of growth at 200 ppm [1]: ≥ 80%
- inhibition of growth at 200 ppm (Gaeumannomyces Graminis): ≥ 80%
- inhibition of growth at 200 ppm (Fusarium culmorum): ≥ 80%
- inhibition of growth at 200 ppm (Sclerotinia sclerotiorum): ≥ 80%
- inhibition of growth at 200 ppm [4]: ≥ 80%
- inhibition of growth at 200 ppm [2]: ≥ 80%
- inhibition of growth at 200 ppm [3]: ≥ 80%
- inhibition of growth at 200 ppm [5]: ≥ 80%

SMILES: OB1OCc2cc(Cl)c(-c3cccc4[nH]c(-c5cscn5)nc34)cc21 [Compound 21]
- inhibition of growth at 200 ppm (Pythium ultimum): ≥ 80%
- inhibition of growth at 200 ppm [4]: ≥ 80%
- inhibition of growth at 200 ppm [5]: ≥ 80%

SMILES: OB1OCc2cc(F)c(-c3ccc(Cl)c(Cl)c3)cc21 [Compound 34]
- melting point: 243 to 245 °C

SMILES: COc1ccc(OC)c(-c2cc3c(cc2Cl)COB3O)c1 [Compound 12]
- inhibition of growth at 200 ppm (Pythium ultimum): ≥ 80%
- inhibition of growth at 200 ppm [1]: ≥ 80%
- inhibition of growth at 200 ppm (Gaeumannomyces Graminis): ≥ 80%
- pest or weed control at 200 ppm (Plasmopara viticola): ≥ 80%
- melting point: 95 to 115 °C
- inhibition of growth at 200 ppm [2]: ≥ 80%
- inhibition of growth at 200 ppm [3]: ≥ 80%

SMILES: Cc1cc(C2CC2)nc(Nc2ccccc2-c2cc3c(cc2Cl)COB3O)n1 [Compound 22]
- inhibition of growth at 200 ppm [3]: ≥ 80%
- inhibition of growth at 200 ppm [5]: ≥ 80%

SMILES: COc1ccc(-c2cc3c(cc2Cl)COB3O)cc1 [Compound 8, 5-chloro-1-hydroxy-6-(4-methoxyphenyl)-3H-2,1-benzoxaborole]
- inhibition of growth at 200 ppm (Pythium ultimum): ≥ 80%
- inhibition of growth at 200 ppm [1]: ≥ 80%
- inhibition of growth at 200 ppm (Gaeumannomyces Graminis): ≥ 80%
- melting point: 105 to 115 °C
- inhibition of growth at 200 ppm [6]: ≥ 80%
- inhibition of growth at 200 ppm [2]: ≥ 80%
- inhibition of growth at 200 ppm [3]: ≥ 80%

SMILES: CC(=O)Nc1ccc(F)cc1-c1cc2c(cc1Cl)COB2O [Compound 19, N-[2-(5-chloro-1-hydroxy-3H-2,1-benzoxaborol-6-yl)-4-fluoro-phenyl]acetamide]
- inhibition of growth at 200 ppm (Pythium ultimum): ≥ 80%
- inhibition of growth at 200 ppm (Fusarium culmorum): ≥ 80%
- inhibition of growth at 200 ppm [2]: ≥ 80%

SMILES: COc1ccccc1-c1cc2c(cc1F)COB2O [Compound 25]
- inhibition of growth at 200 ppm (Pythium ultimum): ≥ 80%
- inhibition of growth at 200 ppm [1]: ≥ 80%
- pest or weed control at 200 ppm (Plasmopara viticola): ≥ 80%
- inhibition of growth at 200 ppm (Fusarium culmorum): ≥ 80%
- inhibition of growth at 200 ppm (Sclerotinia sclerotiorum): ≥ 80%
- inhibition of growth at 200 ppm [4]: ≥ 80%
- melting point: 50 to 65 °C
- inhibition of growth at 200 ppm [2]: ≥ 80%
- inhibition of growth at 200 ppm [3]: ≥ 80%

SMILES: Cc1ccccc1-c1cc2c(cc1Cl)COB2O [Compound 4]
- inhibition of growth at 200 ppm (Pythium ultimum): ≥ 80%
- inhibition of growth at 200 ppm [1]: ≥ 80%
- pest or weed control at 200 ppm (Plasmopara viticola): ≥ 80%
- inhibition of growth at 200 ppm [6]: ≥ 80%
- inhibition of growth at 200 ppm [2]: ≥ 80%

SMILES: OB1OCc2cc(Cl)c(-c3ccc(O)cc3)cc21 [Compound 11]
- inhibition of growth at 200 ppm (Pythium ultimum): ≥ 80%
- pest or weed control at 200 ppm (Plasmopara viticola): ≥ 80%
- inhibition of growth at 200 ppm [3]: ≥ 80%

SMILES: Cc1cc(C2CC2)nc(Nc2ccc(-c3cc4c(cc3Cl)COB4O)cc2)n1 [Compound 24]
- inhibition of growth at 200 ppm [3]: ≥ 80%

SMILES: OB1OCc2cc(Cl)c(-c3cc(-n4cccn4)ccc3Br)cc21 [Compound 18]
- inhibition of growth at 200 ppm (Pythium ultimum): ≥ 80%
- inhibition of growth at 200 ppm [1]: ≥ 80%
- inhibition of growth at 200 ppm (Gaeumannomyces Graminis): ≥ 80%
- inhibition of growth at 200 ppm [2]: ≥ 80%
- inhibition of growth at 200 ppm [3]: ≥ 80%

SMILES: OB1OCc2cc(Cl)c(-c3cccc4ncoc34)cc21 [Compound 16]
- inhibition of growth at 200 ppm (Pythium ultimum): ≥ 80%
- inhibition of growth at 200 ppm [1]: ≥ 80%
- inhibition of growth at 200 ppm (Gaeumannomyces Graminis): ≥ 80%
- inhibition of growth at 200 ppm [2]: ≥ 80%
- inhibition of growth at 200 ppm [3]: ≥ 80%

SMILES: Cc1ccc(-c2cc3c(cc2Cl)COB3O)cc1C [Compound 2]
- inhibition of growth at 200 ppm (Pythium ultimum): ≥ 80%
- inhibition of growth at 200 ppm [1]: ≥ 80%
- inhibition of growth at 200 ppm (Gaeumannomyces Graminis): ≥ 80%
- melting point: 155 to 165 °C
- inhibition of growth at 200 ppm [2]: ≥ 80%

SMILES: Cc1cc(C2CC2)nc(Nc2cccc(-c3cc4c(cc3Cl)COB4O)c2)n1 [Compound 23]
- inhibition of growth at 200 ppm [3]: ≥ 80%

SMILES: Cc1nc2cccc(-c3cc4c(cc3Cl)COB4O)c2s1 [Compound 15, 7-(5-chloro-1-hydroxy-3H-2,1-benzoxaborol-6-yl)-2-methyl-1,3-benzothiazole]
- inhibition of growth at 200 ppm (Pythium ultimum): ≥ 80%
- pest or weed control at 200 ppm (Plasmopara viticola): ≥ 80%
- inhibition of growth at 200 ppm [3]: ≥ 80%

SMILES: COc1ccc(-c2cc3c(cc2F)COB3O)cc1 [Compound 26]
- inhibition of growth at 200 ppm (Pythium ultimum): ≥ 80%
- inhibition of growth at 200 ppm [1]: ≥ 80%
- inhibition of growth at 200 ppm (Fusarium culmorum): ≥ 80%
- inhibition of growth at 200 ppm [2]: ≥ 80%
- inhibition of growth at 200 ppm [3]: ≥ 80%

SMILES: Cc1cccc(-c2cc3c(cc2Cl)COB3O)c1 [Compound 5]
- inhibition of growth at 200 ppm (Pythium ultimum): ≥ 80%
- inhibition of growth at 200 ppm [1]: ≥ 80%
- inhibition of growth at 200 ppm (Fusarium culmorum): ≥ 80%
- inhibition of growth at 200 ppm [6]: ≥ 80%
- inhibition of growth at 200 ppm [2]: ≥ 80%

SMILES: N#Cc1ccc(-c2cc3c(cc2F)COB3O)cc1 [Compound 29]
- inhibition of growth at 200 ppm (Pythium ultimum): ≥ 80%
- melting point: 270 to 272 °C
- inhibition of growth at 200 ppm [3]: ≥ 80%

SMILES: COC(=O)c1cc(-c2cc3c(cc2Cl)COB3O)ccc1OC [Compound 30]
- inhibition of growth at 200 ppm (Pythium ultimum): ≥ 80%
- inhibition of growth at 200 ppm [3]: ≥ 80%

SMILES: Cc1ccc(-c2cc3c(cc2Cl)COB3O)cc1 [Compound 6]
- inhibition of growth at 200 ppm (Pythium ultimum): ≥ 80%
- inhibition of growth at 200 ppm [1]: ≥ 80%
- inhibition of growth at 200 ppm (Fusarium culmorum): ≥ 80%
- inhibition of growth at 200 ppm [6]: ≥ 80%
- inhibition of growth at 200 ppm [2]: ≥ 80%

SMILES: COc1cccc(-c2cc3c(cc2F)COB3O)c1 [Compound 27, 5-fluoro-6-(3-methoxy-phenyl)-3H-benzo[c][1,2] oxaborol-1-ol]
- inhibition of growth at 200 ppm (Pythium ultimum): ≥ 80%
- inhibition of growth at 200 ppm [1]: ≥ 80%
- pest or weed control at 200 ppm (Plasmopara viticola): ≥ 80%
- inhibition of growth at 200 ppm (Fusarium culmorum): ≥ 80%
- inhibition of growth at 200 ppm (Sclerotinia sclerotiorum): ≥ 80%
- inhibition of growth at 200 ppm [4]: ≥ 80%
- melting point: 118 to 120 °C
- inhibition of growth at 200 ppm [2]: ≥ 80%
- inhibition of growth at 200 ppm [3]: ≥ 80%

SMILES: Cc1nc2c(-c3cc4c(cc3Cl)COB4O)cccc2s1 [Compound 13, 4-(5-chloro-1-hydroxy-3H-2,1-benzoxaborol-6-yl)-2-methyl-1,3-benzothiazole]
- inhibition of growth at 200 ppm (Pythium ultimum): ≥ 80%
- inhibition of growth at 200 ppm [1]: ≥ 80%
- inhibition of growth at 200 ppm (Gaeumannomyces Graminis): ≥ 80%
- inhibition of growth at 200 ppm [2]: ≥ 80%
- inhibition of growth at 200 ppm [3]: ≥ 80%

SMILES: Cc1nc2cc(-c3cc4c(cc3Cl)COB4O)ccc2s1 [Compound 14, 5-(5-chloro-1-hydroxy-3H-2,1-benzoxaborol-6-yl)-2-methyl-1,3-benzothiazole]
- inhibition of growth at 200 ppm (Pythium ultimum): ≥ 80%
- pest or weed control at 200 ppm (Plasmopara viticola): ≥ 80%
- inhibition of growth at 200 ppm [3]: ≥ 80%
